Measured values from ChEMBL document CHEMBL3525927, “Measurement of unbound drug exposure in brain: modeling of pH partitioning explains diverging results between the brain slice and brain homogenate methods” (Drug Metab Dispos, 2011).

Columns and labels:
in vitro = settings: Sprague-Dawley, rat, brain homogenate
Brain [1] = experiment: Drug uptake in Sprague-Dawley rat brain slices in presence of 1 uM of decynium-22; format: ADME, tissue-based
Brain [2] = experiment: Drug uptake in Sprague-Dawley rat brain slices in presence of 50 nM of monensin; format: ADME, tissue-based
Brain [3] = settings: rat, 5 h, 0.1 µM
in vivo = settings: Sprague-Dawley, rat
Brain [4] = experiment: Unbound volume of distribution in Sprague-Dawley rat brain slices at 100 nM after 5 hrs in presence of 10 uM of cyclosporine; format: ADME, tissue-based; settings: 0.1 µM
[5] = Dissociation constant, pKa of the basic compound by capillary electrophoresis-mass spectrometry analysis; format: physicochemical
Brain [6] = experiment: Drug uptake in Sprague-Dawley rat brain slices at 100 nM after 5 hrs in presence of 10 uM of cyclosporine; format: ADME, tissue-based; settings: 0.1 µM
Brain [7] = settings: Sprague-Dawley, rat, brain homogenate, 5 µM
Brain [8] = experiment: Drug uptake in Sprague-Dawley rat brain slices in presence of 50 pM to 50 nM of monensin; format: ADME, tissue-based
Brain [9] = settings: rat, in vivo, 5 h, 0.1 µM
Description: Drug uptake in Sprague-Dawley rat brain slices at 100 nM after 5 hrs in presence of 10 uM of fumitremorgin-C

Brain [10] = settings: rat, in vivo, 5 h, 0.1 µM; remark: listed apart in the source
Description: Drug uptake in Sprague-Dawley rat brain slices at 100 nM after 5 hrs in presence of 10 uM of fumitremorgin-C and 20 uM of MK-571

Brain [11] = settings: rat, in vivo, 5 h, 0.1 µM; remark: listed apart in the source
Description: Drug uptake in Sprague-Dawley rat brain slices at 100 nM after 5 hrs in presence of 20 uM of MK-571

Description for physchem: Dissociation constant, pKa of the acidic compound by capillary electrophoresis-mass spectrometry analysis

| Structure (SMILES) | fraction unbound at 5 µM (in vitro) | Vdu (Brain [3]) [mL/g] | Kp uu (in vivo; brain and plasma) | Vdu (Brain [3]; in vivo) [mL/g] | Kp uu (in vivo; brain) | pKa (physchem) | other results |
| --- | --- | --- | --- | --- | --- | --- | --- |
| CN(C)C(=O)Oc1cccc([N+](C)(C)C)c1 [NEOSTIGMINE] | 0.95 | 3.2 | 3.07 |  |  |  | Compound recovery (Brain [1]): Not Active; Compound recovery (Brain [2]): Active |
| CC[N+](CC)(CC)CC [TETRYLAMMONIUM] | 1 |  |  | 9 | 8.95 |  | Compound recovery (Brain [1]): Not Active; Compound recovery (Brain [2]): Active |
| COc1cccc(C2(O)CCCCC2CN(C)C)c1 (stereo unspecified) [TRAMADOL] | 0.53 |  |  | 4.2 | 2.25 | 9.7 |  |
| Nc1nnc(-c2cccc(Cl)c2Cl)c(N)n1 [LAMOTRIGINE] | 0.21 |  |  | 4.6 | 0.96 |  |  |
| CN/C(=N/CCSCc1nc[nH]c1C)NC#N [CIMETIDINE] | 0.76 |  |  | 2.3 | 1.73 | 7 |  |
| CC(C)(C)NC(=O)[C@@H]1C[C@@H]2CCCC[C@@H]2CN1C[C@@H](O)[C@H](Cc1ccccc1)NC(=O)[C@H](CC(N)=O)NC(=O)c1ccc2ccccc2n1 | 0.0038 |  |  | 208 | 0.79 | 6.8 | Unbound brain volume of distribution (Brain [4]): Active |
| CC(NC(C)(C)C)C(=O)c1cccc(Cl)c1 (stereo unspecified) [BUPROPION] |  | 16 | 2.66 |  |  | 8.6 |  |
| CO[C@H]1/C=C/O[C@@]2(C)Oc3c(C)c(O)c4c(O)c(c(/C=N/N5CCN(C)CC5)c(O)c4c3C2=O)NC(=O)/C(C)=C\C=C\[C@H](C)[C@H](O)[C@@H](C)[C@@H](O)[C@@H](C)[C@H](OC(C)=O)[C@@H]1C [RIFAMPIN] |  |  |  |  |  | 7.6 | pKa [5]: 2.2 |
| COc1ccc2c(c1)c(CC(=O)O)c(C)n2C(=O)c1ccc(Cl)cc1 [INDOMETHACIN] | 0.044 |  |  | 14 | 0.6 |  | Compound recovery (Brain [2]): Active |
| CN(C)C(=O)C(CCN1CCC(O)(c2ccc(Cl)cc2)CC1)(c1ccccc1)c1ccccc1 [LOPERAMIDE] | 0.008 | 370 | 2.95 |  |  | 9 | Unbound brain volume of distribution (Brain [4]): Active |
| COc1ccc2c3c1O[C@H]1[C@@H](O)C=C[C@H]4[C@@H](C2)N(C)CC[C@@]341 [CODEINE] | 0.62 |  |  | 3.2 | 1.99 | 8.4 |  |
| CN1CC[C@]23c4c5ccc(O[C@@H]6O[C@H](C(=O)O)[C@@H](O)[C@H](O)[C@H]6O)c4O[C@H]2[C@@H](O)C=C[C@H]3[C@H]1C5 [MORPHINE 3-GLUCURONIDE] | 0.97 | 0.6 | 0.58 |  |  |  |  |
| CC1(C)O[C@@H]2[C@@H](CO[C@@]3(COS(N)(=O)=O)OC(C)(C)O[C@@H]23)O1 [TOPIRAMATE] | 0.61 | 3.2 | 1.96 |  |  |  |  |
| CN1CC[C@]23c4c5ccc(O)c4O[C@H]2C(=O)CC[C@@]3(O)[C@H]1C5 [OXYMORPHONE] | 0.75 | 4 | 2.97 |  |  | 8.7 |  |
| CCNC(=O)C(C(N)=O)c1ccccc1 (stereo unspecified) | 0.65 |  |  | 0.93 | 0.6 |  |  |
| C=C[C@H]1C[N@@]2CC[C@H]1C[C@@H]2[C@@H](O)c1ccnc2ccc(OC)cc12 [QUINIDINE] |  |  |  |  | 3.45 |  |  |
| C=C[C@H]1C[N@@]2CC[C@H]1C[C@H]2[C@H](O)c1ccnc2ccc(OC)cc12 [QUININE] |  |  |  |  | 3.51 |  |  |
| CCn1cc(C(=O)O)c(=O)c2cc(F)c(N3CCNCC3)cc21 [NORFLOXACIN] | 0.58 |  |  | 2.9 | 1.66 | 8.7 | pKa [5]: 4.4 |
| CC(C)Nc1cccnc1N1CCN(C(=O)c2cc3cc(NS(C)(=O)=O)ccc3[nH]2)CC1 [DELAVIRDINE] | 0.022 |  |  | 40 | 0.86 | 4.5 |  |
| CN(Cc1cnc2nc(N)nc(N)c2n1)c1ccc(C(=O)N[C@@H](CCC(=O)O)C(=O)O)cc1 [METHOTREXATE] | 0.89 |  |  | 0.68 | 0.61 |  |  |
| Cc1ncc2n1-c1ccc(Cl)cc1C(c1ccccc1F)=NC2 [MIDAZOLAM] | 0.026 | 29 | 0.74 |  |  | 5.4 |  |
| NC12CC3CC(CC(C3)C1)C2 [AMANTADINE] | 0.29 |  |  | 9.9 | 2.83 |  |  |
| NCC1(CC(=O)O)CCCCC1 [GABAPENTIN] |  | 4.6 | 4.55 |  |  | 10.5 | pKa [5]: 3.9 |
| Cc1c(O)cccc1C(=O)N[C@@H](CSc1ccccc1)[C@H](O)CN1C[C@H]2CCCC[C@H]2C[C@H]1C(=O)NC(C)(C)C | 0.00072 | 860 | 0.62 |  |  | 6.3 | Compound recovery (Brain [6]): Not Active; Unbound brain volume of distribution (Brain [4]): Active |

| Structure (SMILES) | fraction unbound at 5 µM (in vitro) | Vdu (Brain [3]) [mL/g] | Kp uu (in vivo; brain and plasma) | Vdu (Brain [3]; in vivo) [mL/g] | Kp uu (in vivo; brain) | pKa (physchem) | other results |
| --- | --- | --- | --- | --- | --- | --- | --- |
| CO[C@@]1(NC(=O)C(C(=O)O)c2ccc(O)cc2)C(=O)N2C(C(=O)O)=C(CSc3nnnn3C)CO[C@@H]21 (stereo partly specified) [MOXALACTAM] |  |  |  | 0.46 | 0.46 |  | Fu (Brain [7]): 12; pKa [5]: 2.9 |
| O=C1OC2(c3ccc(O)cc3Oc3cc(O)ccc32)c2ccccc21 [FLUORESCEIN] | 0.42 |  | 0.74 | 1.8 |  |  |  |
| Clc1cccc(Cl)c1N=C1NCCN1 [CLONIDINE] | 0.42 |  |  | 5.9 | 2.47 | 8.3 |  |
| O=C(O)Cc1ccccc1Nc1c(Cl)cccc1Cl [DICLOFENAC] | 0.041 | 15 | 0.61 |  |  |  |  |
| C=C[C@H]1C[N+]2(C)CC[C@H]1C[C@@H]2[C@@H](O)c1ccnc2ccc(OC)cc12 | 0.23 | 4.6 | 1.06 |  |  |  | Compound recovery (Brain [1]): Not Active; Compound recovery (Brain [2]): Active; Unbound brain volume of distribution (Brain [4]): Active |
| Nc1c2c(nc3ccccc13)CCCC2 [TACRINE] | 0.16 |  |  | 22 |  |  |  |
| NCC(CC(=O)O)c1ccc(Cl)cc1 (stereo unspecified) [BACLOFEN] | 0.98 | 1.7 | 1.62 |  |  | 9.7 | pKa [5]: 3.7 |
| CCCC(C)C1(CC)C(=O)NC(=S)NC1=O (stereo unspecified) [THIOPENTAL] |  |  |  |  |  |  | pKa [5]: 7.6 |
| Cc1nnc2n1-c1ccc(Cl)cc1C(c1ccccc1)=NC2 [ALPRAZOLAM] | 0.16 | 6.5 |  |  |  |  |  |
| CC(C)NCC(O)COc1cccc2ccccc12 (stereo unspecified) [PROPRANOLOL] | 0.029 | 112 |  |  |  |  | Compound recovery (Brain [8]): Not Active |
| C[C@H]1COc2c(N3CCN(C)CC3)c(F)cc3c(=O)c(C(=O)O)cn1c23.C[C@H]1COc2c(N3CCN(C)CC3)c(F)cc3c(=O)c(C(=O)O)cn1c23.O [LEVOFLOXACIN] | 0.84 | 1.7 | 1.44 |  |  |  |  |
| C=CCc1ccccc1OCC(O)CNC(C)C (stereo unspecified) [ALPRENOLOL] | 0.057 |  |  | 50 | 2.83 |  |  |
| CSc1ccc2c(c1)N(CCC1CCCCN1C)c1ccccc1S2 (stereo unspecified) [THIORIDAZINE] | 0.00067 |  |  | 3333 | 2.24 | 8.9 |  |
| C=CCOc1ccccc1OCC(O)CNC(C)C (stereo unspecified) [OXPRENOLOL] | 0.28 |  |  | 11.8 | 3.25 | 9.7 |  |
| O=C(O)c1ccccc1O [SALICYLIC ACID] | 0.63 |  |  | 1 | 0.62 |  |  |
| C[n+]1ccc(-c2ccccc2)cc1 | 0.49 | 157 | 77 |  |  |  | Compound recovery (Brain [1]): Not Active; Compound recovery (Brain [2]): Not Active |
| O=C(O)c1cc(/N=N/c2ccc(S(=O)(=O)Nc3ccccn3)cc2)ccc1O [SULFASALAZINE] |  |  |  |  |  |  | pKa [5]: 2 |
| CC(=O)O[C@H]1C(=O)[C@@]2(C)[C@H]([C@H](OC(=O)c3ccccc3)[C@]3(O)C[C@H](OC(=O)[C@H](O)[C@@H](NC(=O)c4ccccc4)c4ccccc4)C(C)=C1C3(C)C)[C@]1(OC(C)=O)CO[C@@H]1C[C@@H]2O [PACLITAXEL] | 0.012 | 769 | 9.03 |  |  |  |  |
| CN(C)CCC=C1c2ccccc2CCc2ccccc21 [AMITRIPTYLINE] | 0.01 |  | 3.08 | 310 |  | 9.5 |  |
| CN1CC[C@]23c4c5ccc(O)c4O[C@H]2[C@@H](O[C@@H]2O[C@H](C(=O)O)[C@@H](O)[C@H](O)[C@H]2O)C=C[C@H]3[C@H]1C5 [MORPHINE GLUCURONIDE] | 0.87 | 0.98 | 0.86 |  |  | 9 | pKa [5]: 4.3 |
| CC(C)(C)NCC(O)COc1cccc2c1CC(O)C(O)C2 (stereo unspecified) [NADOLOL] |  |  |  |  |  | 9.9 |  |
| CC(C)NCC(O)COc1cccc2[nH]ccc12 (stereo unspecified) [PINDOLOL] | 0.4 |  |  |  | 2.89 |  |  |
| CN(C)C(=N)N=C(N)N [METFORMIN] | 0.95 | 10 | 9.51 |  |  |  | Compound recovery (Brain [2]): Active |
| O=C1c2c(O)ccc(O)c2C(=O)c2c(NCCNCCO)ccc(NCCNCCO)c21 [MITOXANTRONE] | 0.0046 | 1757 | 8.01 |  |  | 8.4 | Compound recovery (Brain [9]): Active; Compound recovery (Brain [10]): Active; Compound recovery (Brain [11]): Active; pKa [5]: 3.2 |
